From PMC4113800 (Marine Drugs, 2014)

What was measured:
BCRP = molecular target: T1, BCRP (Homo sapiens, UniProt Q9UNQ0); test: cell-based; settings: NCI-H460/MX20; for FAR (fluorescence arbitrary ratio), mitoxantrone fluorescence: compound 20 μM vs PBS; for % FTC (inhibition of mitoxantrone efflux normalized to 10 μM FTC): compound 20 μM
T1 sequence (Q9UNQ0 1-655): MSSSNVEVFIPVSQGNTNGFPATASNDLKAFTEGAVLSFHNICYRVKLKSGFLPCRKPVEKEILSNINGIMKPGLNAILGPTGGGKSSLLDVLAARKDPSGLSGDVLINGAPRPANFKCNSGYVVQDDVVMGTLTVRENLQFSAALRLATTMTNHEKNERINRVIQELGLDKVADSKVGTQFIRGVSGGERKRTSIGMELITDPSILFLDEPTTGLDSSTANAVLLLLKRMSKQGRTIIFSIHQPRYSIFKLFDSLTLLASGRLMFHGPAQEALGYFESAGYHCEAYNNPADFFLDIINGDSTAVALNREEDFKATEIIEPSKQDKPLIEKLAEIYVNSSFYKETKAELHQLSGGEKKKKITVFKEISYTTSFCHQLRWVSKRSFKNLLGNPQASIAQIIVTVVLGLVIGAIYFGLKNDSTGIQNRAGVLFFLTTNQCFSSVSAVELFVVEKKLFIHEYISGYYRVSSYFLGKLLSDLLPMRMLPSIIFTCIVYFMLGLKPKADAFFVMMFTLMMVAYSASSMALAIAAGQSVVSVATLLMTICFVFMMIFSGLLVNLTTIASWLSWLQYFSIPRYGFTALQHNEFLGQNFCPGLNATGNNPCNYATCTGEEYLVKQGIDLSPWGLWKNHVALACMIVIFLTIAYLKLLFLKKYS
Experimental: (§1) Flow cytometry based assays were used to measure the ability of natural or synthetic compounds to inhibit P-gp, BCRP or MRP1 mediated accumulation and/or efflux of fluorescent reagents. […] For the calcein AM accumulation assays, cells were directly analyzed by flow cytometry.
(§2) Intracellular fluorescence intensity was measured on a BD FACSCanto™ II flow cytometer (Becton Dickinson, San Jose, CA, USA) and data were analyzed through FlowJo (Tree Star, Inc., Ashland, OR, USA). […] Mitoxantrone fluorescence was detected with a 638 nm […] laser and a 660/20 nm band-pass filter. At least 10,000 events were collected for all of the flow cytometry experiment. By increasing threshold value on forward scatter versus side scatter, debris was eliminated. Dead cells were excluded based on propidium iodide staining. Data are means ± SEM of at least three independent experiments performed in duplicate.

SW620 Ad300 cells = test: Reversal of P-gp mediated doxorubicin resistance (MTT assay); assay type: cell-based, human
Experimental: (§3) The MTT assay was modified based on that previously described, using adherent cell lines SW620 and NCI-H460, and their P-gp over-expressing daughter cell line SW620 Ad300 and BCRP over-expressing daughter cell line NCI-H460/MX20, respectively. Briefly, cells were harvested with trypsin and added into 96-well microtitre assay plates at 2000 cells/well, followed by 18 h incubation at 37 °C with 5% CO2. […] Control wells were treated with 5% aqueous DMSO. […] 68 h later, 20 μL MTT (4 mg/mL in PBS) was dispensed into each well (final concentration 0.40 mg/mL), and plates were incubated for a further 4 h at 37 °C with 5% CO2. Finally medium was removed and precipitated formazan crystals were dissolved in 100% DMSO. The absorbance of each well was measured at 580 nm with a PowerWave XS Microplate Reader from Bio-Tek Instruments Inc. (Vinooski, VT, USA).
(§4) All experiments were performed in duplicate.

NCI-H460 cells = test: [3H]-mitoxantrone accumulation and efflux in parental NCI-H460 cells; assay type: cell-based, human; settings: 11 at 10 or 30 μM, FTC 5.0 μM
Text: […]. […] […]

[1] = MTT cytotoxicity assay, P-gp over-expressing SW620 Ad300 cells; assay type: cell-based; settings: human
Experimental: as §3, §4

[2] = MTT cytotoxicity assay, parental SW620 cells; assay type: cell-based; settings: human
Experimental: as §3, §4

P-gp = molecular target: T2, P-gp (Homo sapiens, UniProt P08183); assay type: cell-based; settings: compound or verapamil 20 μM vs PBS; calcein AM […]; SW620 Ad300; note: calcein AM 0.25 µM
T2 construct: The drug-resistant P-gp over-expressing daughter cell line SW620 Ad300 was established by stepwise selection; endogenous in cells; host or cells: SW620 Ad300 (human colon cancer, doxorubicin-selected)
T2 sequence (P08183 whole entry): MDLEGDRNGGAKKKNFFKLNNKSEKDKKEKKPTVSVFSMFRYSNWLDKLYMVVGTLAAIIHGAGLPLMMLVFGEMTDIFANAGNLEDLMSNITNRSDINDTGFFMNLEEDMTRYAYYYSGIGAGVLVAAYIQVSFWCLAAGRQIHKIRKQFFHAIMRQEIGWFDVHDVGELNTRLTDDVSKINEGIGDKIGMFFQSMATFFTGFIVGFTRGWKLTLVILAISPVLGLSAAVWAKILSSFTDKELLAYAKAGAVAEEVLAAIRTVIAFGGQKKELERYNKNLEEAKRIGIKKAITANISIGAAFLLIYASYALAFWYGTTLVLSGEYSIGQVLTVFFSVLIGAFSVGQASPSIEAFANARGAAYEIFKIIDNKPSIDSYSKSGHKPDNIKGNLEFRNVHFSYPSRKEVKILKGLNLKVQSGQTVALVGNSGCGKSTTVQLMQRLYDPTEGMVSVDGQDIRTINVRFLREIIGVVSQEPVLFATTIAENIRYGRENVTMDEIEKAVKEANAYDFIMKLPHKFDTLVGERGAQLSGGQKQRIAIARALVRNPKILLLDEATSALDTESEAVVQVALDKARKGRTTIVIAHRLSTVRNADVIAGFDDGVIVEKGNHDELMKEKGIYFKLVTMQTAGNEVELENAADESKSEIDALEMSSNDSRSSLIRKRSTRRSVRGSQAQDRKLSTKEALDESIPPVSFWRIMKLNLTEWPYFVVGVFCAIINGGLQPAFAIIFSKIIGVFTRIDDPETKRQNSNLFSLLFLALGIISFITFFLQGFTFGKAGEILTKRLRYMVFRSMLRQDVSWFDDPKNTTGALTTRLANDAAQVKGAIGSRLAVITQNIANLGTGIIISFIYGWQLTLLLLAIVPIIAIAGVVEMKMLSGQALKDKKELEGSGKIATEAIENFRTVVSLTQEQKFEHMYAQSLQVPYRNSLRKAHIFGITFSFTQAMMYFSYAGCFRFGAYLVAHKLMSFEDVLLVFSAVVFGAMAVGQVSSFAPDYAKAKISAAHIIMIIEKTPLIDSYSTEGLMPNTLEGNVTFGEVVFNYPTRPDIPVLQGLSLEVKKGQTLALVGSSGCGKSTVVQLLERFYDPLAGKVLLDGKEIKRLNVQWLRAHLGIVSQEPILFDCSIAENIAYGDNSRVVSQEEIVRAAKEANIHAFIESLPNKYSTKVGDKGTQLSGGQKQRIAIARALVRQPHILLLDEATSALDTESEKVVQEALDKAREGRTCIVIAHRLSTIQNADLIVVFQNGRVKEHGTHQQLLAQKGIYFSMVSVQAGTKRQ
Experimental: as §1, §2

IC50 (SW620 Ad300 cells; Homo sapiens, doxorubicin alone)	FAR (fluorescence arbitrary ratio), intracellular calcein fluorescence (P-gp)	Compound	FAR (fluorescence arbitrary ratio), mitoxantrone fluorescence (BCRP)	% FTC (inhibition of mitoxantrone efflux normalized to 10 μM FTC) (BCRP)	effect on intracellular [3H]-mitoxantrone levels, accumulation phase (NCI-H460 cells)	effect on intracellular [3H]-mitoxantrone levels, efflux phase (NCI-H460 cells)	IC50 at 68 h [1]	DMF (dose-modifying factor), increase in sensitivity towards doxorubicin (SW620 Ad300 cells; lamellarin O (11) 5.0 μM)	DMF (dose-modifying factor), increase in sensitivity towards doxorubicin (SW620 Ad300 cells; lamellarin O (11) 10 μM)	DMF (dose-modifying factor), increase in sensitivity towards doxorubicin (SW620 Ad300 cells; lamellarin O (11) […] μM)	IC50 at 68 h [2]
4.44 ± 0.21 µM	–	COc1cccc2c1C(=O)c1c(O)c3c(c(O)c1C2=O)C[C@@](O)(C(=O)CO)C[C@@H]3O[C@H]1C[C@H](N)[C@H](O)[C@H](C)O1 [doxorubicin, reference compound]	–	–	–	–	–	–	–	–	–
–	0.54 fold	COC(=O)c1[nH]cc(-c2ccc(O)cc2)c1-c1ccc(O)cc1 [Compound 12, lamellarin Q]	1.41 fold	18.6 % FTC	–	–	> 30 µM	–	–	–	> 30 µM
–	0.61 fold	COC(=O)C1(O)C(c2ccc(O)cc2)=C(c2ccc(O)cc2)C(=O)N1CC(=O)c1ccc(OC)cc1 (stereo not drawn) [Compound 6, ianthellidone F]	1.21 fold	9.79 % FTC	–	–	> 30 µM	–	–	–	> 30 µM
–	0.60 fold	COC(=O)c1c(-c2ccc(O)cc2)c(-c2ccc(O)cc2)cn1CC(O)c1ccc(O)cc1 (stereo not drawn) [Compound 10, lamellarin O2]	1.11 fold	5.13 % FTC	–	–	> 30 µM	–	–	–	> 30 µM

More lines, now with the values behind:

Compound	IC50 (SW620 Ad300 cells; Homo sapiens, doxorubicin alone)	FAR (fluorescence arbitrary ratio), intracellular calcein fluorescence (P-gp)	FAR (fluorescence arbitrary ratio), mitoxantrone fluorescence (BCRP)	% FTC (inhibition of mitoxantrone efflux normalized to 10 μM FTC) (BCRP)	effect on intracellular [3H]-mitoxantrone levels, accumulation phase (NCI-H460 cells)	effect on intracellular [3H]-mitoxantrone levels, efflux phase (NCI-H460 cells)	IC50 at 68 h [1]	DMF (dose-modifying factor), increase in sensitivity towards doxorubicin (SW620 Ad300 cells; lamellarin O (11) 5.0 μM)	DMF (dose-modifying factor), increase in sensitivity towards doxorubicin (SW620 Ad300 cells; lamellarin O (11) 10 μM)	DMF (dose-modifying factor), increase in sensitivity towards doxorubicin (SW620 Ad300 cells; lamellarin O (11) […] μM)	IC50 at 68 h [2]
COC(=O)c1cccn1CC(=O)c1ccc(OC)cc1 [Compound 13]	–	–	1.00 fold	< 1.00 % FTC	–	–	–	–	–	–	–
COC(=O)c1c(-c2ccc(O)cc2)c(-c2ccc(O)cc2)cn1CC(=O)c1ccc(OC)cc1 [Compound 11, lamellarin O]	–	–	–	–	neither 11 (10 or 30 μM) nor FTC (5.0 μM) significantly changed intracellular [^3H]-mitoxantrone levels	Neither 11 nor FTC had a significant effect	22.3 µM	1.5 fold	3.1 fold	4.8 fold	22 µM
COC(=O)c1cc(Br)cn1CC(=O)c1ccc(OC)cc1 [Compound 14]	–	–	1.03 fold	< 1.00 % FTC	–	–	–	–	–	–	–
COC(=O)c1ccc(Br)n1CC(=O)c1ccc(OC)cc1 [Compound 15]	–	–	0.97 fold	< 1.00 % FTC	–	–	–	–	–	–	–
COCN1C(=O)C(c2ccc(O)cc2)=C(c2ccc(O)cc2)C1(O)C(=O)OC (stereo not drawn) [Compound 3, ianthellidone C]	–	0.61 fold	1.12 fold	5.60 % FTC	–	–	> 30 µM	–	–	–	> 30 µM
COC(=O)C1(O)NC(=O)C(c2ccc(O)cc2)=C1c1ccc(O)cc1 (stereo not drawn) [Compound 1, ianthellidone A]	–	0.63 fold	0.97 fold	<1.00 % FTC	–	–	> 30 µM	–	–	–	> 30 µM
